We go through seven compounds from ChEMBL document CHEMBL1817568, “Novel hybrids of fluconazole and furanones: design, synthesis and antifungal activity” (2011).

Assay [1] concerns Fusarium proliferatum. Nature of the assay: Antifungal activity against Fusarium proliferatum ATCC 10052 at 32 ug/ml by broth dilution method. The class given is functional, organism-based.
For assay [2], the system named is Cryptococcus neoformans. Nature of the assay: Antifungal activity against Cryptococcus neoformans ATCC 34664 at 32 ug/ml by broth dilution method. The class given is functional, organism-based. (Broth dilution looks for growth in wells or tubes with falling amounts of substance.)
In assay [3] the test system is Nakaseomyces glabratus. The assay is described as follows: Antifungal activity against Candida glabrata ATCC 90030 at 32 ug/ml by broth dilution method. The class given is functional, organism-based.
Assay [4] concerns Pichia kudriavzevii. The assay is described as follows: Antifungal activity against Candida krusei ATCC 6258 at 32 ug/ml by broth dilution method. The class given is functional, organism-based.
Assay [5] relates to Aspergillus niger. The assay is described as follows: Antifungal activity against Aspergillus niger ATCC 16404 at 32 ug/ml by broth dilution method. The class given is functional, organism-based.
Assay [6] concerns Aspergillus fumigatus. Nature of the assay: Antifungal activity against Aspergillus fumigatus ATCC 46645 at 32 ug/ml by broth dilution method. The class given is functional, organism-based.
Assay [7] concerns Candida tropicalis. Nature of the assay: Antifungal activity against Candida tropicalis ATCC 750 at 32 ug/ml by broth dilution method. The class given is functional, organism-based.
Assay [8] deals with Candida albicans. Nature of the assay: Antifungal activity against Candida albicans ATCC 24433 at 32 ug/ml by broth dilution method. The class given is functional, organism-based.
Assay [9] deals with Candida tropicalis. Nature of the assay: Antifungal activity against Candida tropicalis ATCC 750 at 8 ug/ml by broth dilution method. The class given is functional, organism-based.
Assay [10] has as its system Aspergillus fumigatus. The assay is described as follows: Antifungal activity against Aspergillus fumigatus ATCC 46645 at 8 ug/ml by broth dilution method. The class given is functional, organism-based.
Assay [11] relates to Cryptococcus neoformans. Nature of the assay: Antifungal activity against Cryptococcus neoformans ATCC 34664 at 8 ug/ml by broth dilution method. The class given is functional, organism-based.
The test system of assay [12] is Nakaseomyces glabratus. The assay is described as follows: Antifungal activity against Candida glabrata ATCC 90030 by broth dilution method. The class given is functional.
Assay [13] deals with Candida albicans. The assay is described as follows: Antifungal activity against Candida albicans ATCC 24433 by broth dilution method. The class given is functional.
Assay [14] concerns Fusarium proliferatum. Nature of the assay: Antifungal activity against Fusarium proliferatum ATCC 10052 at 8 ug/ml by broth dilution method. The class given is functional, organism-based.
Assay [15] concerns Pichia kudriavzevii. Nature of the assay: Antifungal activity against Candida krusei ATCC 6258 at 8 ug/ml by broth dilution method. The class given is functional, organism-based.
Assay [16] has as its system Aspergillus niger. Nature of the assay: Antifungal activity against Aspergillus niger ATCC 16404 at 8 ug/ml by broth dilution method. The class given is functional, organism-based.
Assay [17] concerns Candida tropicalis. Nature of the assay: Antifungal activity against Candida tropicalis ATCC 750 by broth dilution method. The class given is functional.
The test system of assay [18] is Aspergillus niger. Nature of the assay: Antifungal activity against Aspergillus niger ATCC 16404 at 16 ug/ml by broth dilution method. The class given is functional, organism-based.
The subject of assay [19] is Fusarium proliferatum. The assay is described as follows: Antifungal activity against Fusarium proliferatum ATCC 10052 at 16 ug/ml by broth dilution method. The class given is functional, organism-based.
The test system of assay [20] is Cryptococcus neoformans. The assay is described as follows: Antifungal activity against Cryptococcus neoformans ATCC 34664 at 16 ug/ml by broth dilution method. The class given is functional, organism-based.
Assay [21] deals with Candida tropicalis. Nature of the assay: Antifungal activity against Candida tropicalis ATCC 750 at 16 ug/ml by broth dilution method. The class given is functional, organism-based.
Assay [22] concerns Aspergillus fumigatus. Nature of the assay: Antifungal activity against Aspergillus fumigatus ATCC 46645 at 16 ug/ml by broth dilution method. The class given is functional, organism-based.
Assay [23] deals with Pichia kudriavzevii. The assay is described as follows: Antifungal activity against Candida krusei ATCC 6258 at 16 ug/ml by broth dilution method. The class given is functional, organism-based.
Assay [24] deals with Aspergillus niger. The assay is described as follows: Antifungal activity against Aspergillus niger ATCC 16404 at 2 ug/ml by broth dilution method. The class given is functional, organism-based.
Assay [25] has as its system Candida albicans. Nature of the assay: Antifungal activity against Candida albicans ATCC 24433 at 2 ug/ml by broth dilution method. The class given is functional, organism-based.
For assay [26], the system named is Aspergillus fumigatus. Nature of the assay: Antifungal activity against Aspergillus fumigatus ATCC 46645 at 2 ug/ml by broth dilution method. The class given is functional, organism-based.
Assay [27] deals with Cryptococcus neoformans. Nature of the assay: Antifungal activity against Cryptococcus neoformans ATCC 34664 at 2 ug/ml by broth dilution method. The class given is functional, organism-based.
Assay [28] concerns Candida tropicalis. Nature of the assay: Antifungal activity against Candida tropicalis ATCC 750 at 2 ug/ml by broth dilution method. The class given is functional, organism-based.
The test system of assay [29] is Fusarium proliferatum. Nature of the assay: Antifungal activity against Fusarium proliferatum ATCC 10052 at 2 ug/ml by broth dilution method. The class given is functional, organism-based.
Assay [30] relates to Pichia kudriavzevii. The assay is described as follows: Antifungal activity against Candida krusei ATCC 6258 at 2 ug/ml by broth dilution method. The class given is functional, organism-based.
For assay [31], the system named is Candida albicans. The assay is described as follows: Antifungal activity against Candida albicans ATCC 24433 at 16 ug/ml by broth dilution method. The class given is functional, organism-based.
The subject of assay [32] is Nakaseomyces glabratus. The assay is described as follows: Antifungal activity against Candida glabrata ATCC 90030 at 16 ug/ml by broth dilution method. The class given is functional, organism-based.
For assay [33], the system named is Nakaseomyces glabratus. Nature of the assay: Antifungal activity against Candida glabrata ATCC 90030 at 2 ug/ml by broth dilution method. The class given is functional, organism-based.

≈ marks a conversion by molar mass, not a printed value. Calls of active or inactive are those of the source. No cut-off for these calls is given here.

Take `COc1ccc(C2=C(c3ccc(Br)cc3)COC2=O)cc1`: the outcome with Fusarium proliferatum [1], in the assay on Cryptococcus neoformans [2], with Nakaseomyces glabratus [3], in the assay with Pichia kudriavzevii [4], in the assay on Aspergillus niger [5] and with Aspergillus fumigatus [6] was inactive. Besides, the outcome with Candida tropicalis [7] and in the assay on Candida albicans [8] was inactive.
A word on the MIC50: it is the lowest concentration that inhibits either 50% of growth or 50% of the strains tested, depending on the study. Read a low MIC50 as higher susceptibility. `COc1cc(C2=C(c3ccc(F)cc3F)COC2=O)ccc1OCC(O)(Cn1cncn1)c1ccc(F)cc1F` (racemic): the result with Candida tropicalis [9], in the assay with Aspergillus fumigatus [10], in the assay with Cryptococcus neoformans [11], in the assay with Fusarium proliferatum [14], with Pichia kudriavzevii [15] and with Aspergillus niger [16] was inactive. For the same compound, the MIC50 with Nakaseomyces glabratus [12] and in the assay with Candida albicans [13] was 1 µg/mL (≈ 1.8 µM) each time.
Turning to `O=C1NC(=S)S/C1=C\c1ccc(OCC(O)(Cn2cncn2)c2ccc(F)cc2F)cc1` (racemic), the outcome with Fusarium proliferatum [1], with Cryptococcus neoformans [2], in the assay with Pichia kudriavzevii [4], in the assay with Aspergillus niger [5] and with Aspergillus fumigatus [6] was inactive. For the same compound, the MIC50 was determined as 8 µg/mL (≈ 16.9 µM) in the assay on Candida tropicalis [17], 4 µg/mL (≈ 8.43 µM) in the assay on Nakaseomyces glabratus [12] and 0.5 µg/mL (≈ 1.05 µM) in the assay with Candida albicans [13].
`COc1cc(/C=C2\SC(=S)NC2=O)ccc1OCC(O)(Cn1cncn1)c1ccc(F)cc1F` (racemic): the result in the assay with Aspergillus niger [18], with Fusarium proliferatum [19], in the assay on Cryptococcus neoformans [20], in the assay with Candida tropicalis [21], with Aspergillus fumigatus [22] and in the assay with Pichia kudriavzevii [23] was inactive. The MIC50 in the assay on Nakaseomyces glabratus [12] came out at 8 µg/mL (≈ 15.9 µM); against Candida albicans [13], 1 µg/mL (≈ 1.98 µM).
Regarding `COc1cc(/C=C2\N=C(c3ccccc3)OC2=O)cc(OC)c1OCC(O)(Cn1cncn1)c1ccc(F)cc1F` (racemic), the outcome with Aspergillus niger [24], with Candida albicans [25], with Aspergillus fumigatus [26], in the assay with Cryptococcus neoformans [27], in the assay with Candida tropicalis [28] and with Fusarium proliferatum [29] was inactive. Further, the outcome with Pichia kudriavzevii [30] was inactive.
For `COc1cc(/C=C2\SC(=S)NC2=O)cc(OC)c1OCC(O)(Cn1cncn1)c1ccc(F)cc1F` (racemic), the outcome in the assay with Aspergillus niger [18], with Candida albicans [31], in the assay with Fusarium proliferatum [19], in the assay with Cryptococcus neoformans [20], in the assay on Nakaseomyces glabratus [32] and with Candida tropicalis [21] was inactive. Moreover, the outcome with Aspergillus fumigatus [22] and with Pichia kudriavzevii [23] was inactive.
Take `COc1ccc(C2=C(c3ccc(Br)cc3)/C(=C/c3ccc(OCC(O)(Cn4cncn4)c4ccc(F)cc4F)cc3)OC2=O)cc1` (racemic): the result with Aspergillus niger [24], with Candida albicans [25], with Nakaseomyces glabratus [33], with Aspergillus fumigatus [26], with Cryptococcus neoformans [27] and with Candida tropicalis [28] was inactive. Moreover, the outcome in the assay with Fusarium proliferatum [29] and in the assay with Pichia kudriavzevii [30] was inactive.
